These results are taken from ChEMBL document CHEMBL1145769, “Novel openers of Ca2+-dependent large-conductance potassium channels: symmetrical pharmacophore and electrophysiological evaluation of bisphenols” (Bioorg Med Chem Lett, 2003).

The target of series [1] is Calcium-activated potassium channel subunit alpha-1 (Homo sapiens) (UniProt Q12791). Kind of series: Maxi-K opening activity on cloned human (hSlo) large- conductance (BK) Ca(2+)-activated K+ channel expressed in Xenopus laevis oocytes at concentration of 20 uM. The class given is functional, cell-based. The conditions noted are these: Oocyte.
Chain of Calcium-activated potassium channel subunit alpha-1 (Homo sapiens) (Q12791 whole entry): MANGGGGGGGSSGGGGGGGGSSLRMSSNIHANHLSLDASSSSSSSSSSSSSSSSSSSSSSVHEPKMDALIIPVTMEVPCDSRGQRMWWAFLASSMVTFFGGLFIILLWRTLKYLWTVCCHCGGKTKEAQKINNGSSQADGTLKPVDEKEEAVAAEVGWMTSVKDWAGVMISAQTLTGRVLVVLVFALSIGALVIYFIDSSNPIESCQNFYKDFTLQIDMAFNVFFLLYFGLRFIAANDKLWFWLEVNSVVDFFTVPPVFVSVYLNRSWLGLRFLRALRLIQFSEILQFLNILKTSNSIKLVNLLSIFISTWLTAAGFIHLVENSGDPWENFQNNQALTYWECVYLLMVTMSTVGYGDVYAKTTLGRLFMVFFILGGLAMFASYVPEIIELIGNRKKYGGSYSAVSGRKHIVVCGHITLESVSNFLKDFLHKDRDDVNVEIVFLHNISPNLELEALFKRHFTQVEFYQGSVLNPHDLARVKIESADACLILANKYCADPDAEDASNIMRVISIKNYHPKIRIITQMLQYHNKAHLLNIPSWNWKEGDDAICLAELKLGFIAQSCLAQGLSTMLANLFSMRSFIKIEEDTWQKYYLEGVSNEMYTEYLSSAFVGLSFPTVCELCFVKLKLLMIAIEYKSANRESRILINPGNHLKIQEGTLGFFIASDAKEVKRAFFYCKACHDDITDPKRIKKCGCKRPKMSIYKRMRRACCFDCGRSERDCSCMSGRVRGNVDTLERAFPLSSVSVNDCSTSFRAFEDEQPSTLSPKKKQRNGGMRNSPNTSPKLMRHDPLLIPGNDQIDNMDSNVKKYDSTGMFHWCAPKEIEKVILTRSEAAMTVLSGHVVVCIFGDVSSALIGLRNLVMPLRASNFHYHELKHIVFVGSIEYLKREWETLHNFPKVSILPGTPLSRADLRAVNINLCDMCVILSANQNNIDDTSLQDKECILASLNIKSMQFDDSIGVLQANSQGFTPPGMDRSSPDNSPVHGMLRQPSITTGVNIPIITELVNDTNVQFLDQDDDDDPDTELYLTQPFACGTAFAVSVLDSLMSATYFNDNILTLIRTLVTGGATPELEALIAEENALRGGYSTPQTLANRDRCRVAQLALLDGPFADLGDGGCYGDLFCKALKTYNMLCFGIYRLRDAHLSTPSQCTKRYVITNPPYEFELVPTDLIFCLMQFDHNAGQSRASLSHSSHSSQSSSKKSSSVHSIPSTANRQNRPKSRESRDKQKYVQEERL
Series [2] can be described thus: pKa value was determined. The class given is physicochemical.

The structures appear in SMILES notation.

`CCCc1ccc(O)c(-c2cc(CCC)ccc2O)c1`: the Control current in series [1] came out at 95.9%. For the same compound, the pKa in series [2] was determined as 9.3.
Regarding `Oc1c(Cl)cc(Cl)c(Cl)c1Cc1c(O)c(Cl)cc(Cl)c1Cl` [HEXACHLOROPHENE], in series [1], the Control current came out at 237%. In series [2], this compound gave a pKa of 6.6.
`Oc1ccc(F)cc1Cc1cc(F)ccc1O`: in series [1], the Control current turned out to be 83.2%. Besides, the pKa in series [2] worked out at 9.7.
On to `CN(C)Cc1cc(Cl)cc(Cc2cc(Cl)cc(CN(C)C)c2O)c1O`, for which, in series [1], the Control current turned out to be 94.7%. In series [2], this compound gave a pKa of 9.6.
Taken in the same sequence, the figures for `Oc1c(Br)cc(Br)cc1-c1cc(Br)cc(Br)c1O` [BROMOPHENE] were 264% and 6.7.
For `Oc1c(Cl)cccc1Cc1cccc(Cl)c1O` the same measures were 95.9% and 8.2.
With `O=c1[nH]c2cc(C(F)(F)F)ccc2n1-c1cc(Cl)ccc1O`, the Control current in series [1] stood at 132%. The compound further had a pKa in series [2] of 9.6.
As for `Oc1ccc(Cl)cc1Cc1cc(Cl)ccc1O` [DICHLOROPHEN], the Control current in series [1] came out at 74.3%. Further, the pKa in series [2] amounted to 9.3.
Taken in the same sequence, the figures for `Oc1ccc(F)cc1Sc1cc(F)ccc1O` were 98.8% and 8.4.
For the compound `O=C(Nc1cccc(C(F)(F)F)c1)Nc1cc(Cl)ccc1O`, in series [1], the Control current amounted to 124%. Further, the pKa in series [2] amounted to 9.3.
`Oc1ccc(Br)cc1-c1cc(Br)ccc1O`: in series [1], the Control current was 97%. In addition, the pKa in series [2] came to 8.6.
Turning to `Oc1c(Cl)cc(Cl)cc1Sc1cc(Cl)cc(Cl)c1O` [BITHIONOL], the Control current in series [1] came out at 199%. For the same compound, the pKa in series [2] was determined as 6.3.
Taken in the same sequence, the figures for `O=C(Nc1cc(Cl)cc(Cl)c1O)Nc1cc(Cl)cc(Cl)c1O` were 196% and 7.4.
Regarding `Oc1c(Cl)cc(Cl)cc1Cc1cc(Cl)cc(Cl)c1O`, the Control current in series [1] came out at 245%. In series [2], this compound displayed a pKa of 7.7.
Turning to `O=C(Nc1cc(Cl)ccc1O)Nc1cc(Cl)ccc1O`, the Control current in series [1] was 150%. The compound also had a pKa in series [2] of 8.9.

For orientation: pKa means the pH at which an ionisable group is half protonated.
